≈ marks a conversion by molar mass, not a printed value.
Columns and labels:
Format in all cases: functional
Aspergillus fumigatus [1] = experiment: In vitro antifungal activity against Aspergillus fumigatus TIMM1776; activity expressed as minimum inhibitory concentration
Candida albicans [2] = experiment: In vitro antifungal activity against Candida albicans ATCC 90028; activity expressed as minimum inhibitory concentration
Saccharomyces cerevisiae [3] = experiment: In vitro antifungal activity against Saccharomyces cerevisiae Y9; activity expressed as minimum inhibitory concentration
Cryptococcus neoformans [4] = experiment: In vitro antifungal activity against Cryptococcus neoformans ATCC 9011
Cryptococcus neoformans [5] = experiment: In vitro antifungal activity against Cryptococcus neoformans ATCC 9011; activity expressed as minimum inhibitory concentration
Candida albicans [6] = experiment: In vitro antifungal activity against Candida albicans ATCC 90028
Saccharomyces cerevisiae [7] = experiment: In vitro antifungal activity against Saccharomyces cerevisiae Y9
Aspergillus fumigatus [8] = experiment: In vitro antifungal activity against Aspergillus fumigatus TIMM1776

Row | Structure (SMILES) | MIC (Aspergillus fumigatus [1]) [µg/mL] | MIC (Candida albicans [2]) [µg/mL] | MIC (Saccharomyces cerevisiae [3]) [µg/mL] | IC80 (Cryptococcus neoformans [4]) [µg/mL] | MIC (Cryptococcus neoformans [5]) [µg/mL] | IC80 (Candida albicans [6]) [µg/mL] | IC80 (Saccharomyces cerevisiae [7]) [µg/mL] | IC80 (Aspergillus fumigatus [8]) [µg/mL]
1 | C=C1/C=C(\C)[C@H](CC)OC(=O)[C@H](C)C(=O)[C@@](O)(CO)C/C(C)=C/[C@@H](C)C1 | > 64 | > 64 | > 64 | 32 (≈ 87.8 µM) | > 64 | – | – | –
2 | C=C1/C=C(\C)[C@H](CC)OC(=O)[C@H](C)C(=O)[C@@](O)(CO)C/C(Cl)=C/[C@@H](C)C1 | > 64 | > 64 | – | 0.15 (≈ 0.39 µM) | 16 (≈ 41.6 µM) | 64 (≈ 166 µM) | – | –
3 | C=C1/C=C(\C)[C@H](CC)OC(=O)[C@H](C)C(=O)[C@@](O)(CO)[C@H](OC)/C=C/[C@@H](C)C1 | > 64 | > 64 | – | – | > 64 | – | – | –
4 | C=C1/C=C(\C)[C@H](CC)OC(=O)[C@H](C)C(=O)[C@@](O)(CO)C/C=C/[C@@H](C)C1 | > 64 | > 64 | – | – | > 64 | – | – | –
5 | C=C1/C=C(\C)[C@H](CC)OC(=O)[C@H](C)C(=O)[C@@](O)(CO)C/C(OCC(F)(F)F)=C/[C@@H](C)C1 | 64 (≈ 143 µM) | > 64 | – | – | 32 (≈ 71.4 µM) | – | – | –
6 | C=C1/C=C(\C)[C@H](CC)OC(=O)[C@H](C)C(=O)[C@@](O)(CO)C/C(OC)=C/[C@@H](C)C1 | > 64 | 4 (≈ 10.5 µM) | 1 (≈ 2.63 µM) | < 0.031 | 0.063 (≈ 0.166 µM) | 1 (≈ 2.63 µM) | 0.5 (≈ 1.31 µM) | –
7 | C=C1/C=C(\C)[C@H](CC)OC(=O)[C@H](C)C(=O)[C@@](O)(CO)C/C(SC)=C/[C@@H](C)C1 | > 64 | 64 (≈ 161 µM) | 64 (≈ 161 µM) | 0.063 (≈ 0.159 µM) | 0.5 (≈ 1.26 µM) | 16 (≈ 40.3 µM) | 32 (≈ 80.7 µM) | –
8 | C=C1/C=C(\C)[C@H](CC)OC(=O)[C@H](C)C(=O)[C@@](O)(CO)[C@@H](OC)/C=C/[C@@H](C)C1 | > 64 | > 64 | – | – | > 64 | – | – | –
9 | C=C1/C=C(\C)[C@H](CC)OC(=O)[C@@H](C)C(=O)[C@@](O)(CO)C/C(OC)=C/[C@@H](C)C1 | > 64 | > 64 | > 64 | – | > 64 | – | – | –
10 | C[C@@H]1[C@H](O)[C@@H](C)/C=C/C=C/C=C/C=C/C=C/C=C/C=C/[C@H](O[C@@H]2O[C@H](C)[C@@H](O)[C@H](N)[C@@H]2O)C[C@@H]2O[C@](O)(C[C@@H](O)C[C@@H](O)[C@H](O)CC[C@@H](O)C[C@@H](O)CC(=O)O[C@H]1C)C[C@H](O)[C@H]2C(=O)O [AMPHOTERICIN B] | 1 (≈ 1.08 µM) | 0.25 (≈ 0.271 µM) | 0.25 (≈ 0.271 µM) | – | 0.25 (≈ 0.271 µM) | – | – | –
11 | OC(Cn1cncn1)(Cn1cncn1)c1ccc(F)cc1F [FLUCONAZOLE] | – | – | – | 8 (≈ 26.1 µM) | – | 0.5 (≈ 1.63 µM) | 8 (≈ 26.1 µM) | > 64

From ChEMBL document CHEMBL1137070, “Novel galbonolide derivatives as IPC synthase inhibitors: design, synthesis and in vitro antifungal activities” (2004)
